According to EPA's ToxValDB 9.5:
“And” between values parts separate entries of the source, which are not always exact repeats. Identical values can stand only once.

Experiments:
Canidae = details: for NOAEL: diet, M/F, Beagle
Rattus norvegicus = details: for LD50: acute
[1] = subchronic, duration: 90 days, clinical chemistry
[2] = subchronic, duration: 90 days, oral, diet, M/F, Wistar, no effects
[3] = subchronic, duration: 90 days, oral, M/F, Sprague-Dawley, histopathology: neoplastic
[4] = subchronic, duration: 90 days, oral, diet, M/F, Sprague-Dawley, histopathology: nonneoplastic
[5] = subchronic, duration: 90 days, oral, gavage, M, hematological
[6] = subchronic, duration: 90 days, no effects
[7] = subchronic, duration: 90 days, oral, diet
[8] = subchronic, duration: 90 days, oral, gavage, M/F, body weight
[9] = subchronic, duration: 90 days, oral
[10] = subchronic, duration: 90 days, oral, diet, M/F, no effects
[11] = subchronic, duration: 13 weeks, oral, gavage
[12] = subchronic, duration: 13 weeks, oral, gavage, M/F, Crj:CD, no effects

C=CO.OCCO
NOAEL (Canidae; chronic, duration: 9 months, oral, no effects): 800 mg/kg-day

Cc1noc(C)c1Cn1cc(N2C(=O)CN(Cc3cccc(O)c3)C2=O)cn1
NOAEL (Rattus norvegicus; subchronic, duration: 13 weeks, oral, diet, no effects): 100 mg/kg-day

Cc1ccc(OCC(=O)N(Cc2cccs2)c2ccn[nH]2)cc1
NOAEL (Rattus norvegicus; reproduction developmental, oral, gavage, F, no effects): 1000 mg/kg-day | NOAEL (Rattus norvegicus; subchronic, duration: 13 weeks, oral, gavage, M/F, no effects): 100 mg/kg-day

COc1ccc(C=CC(=O)NCCc2ccc(OC)c(OC)c2)cc1OC
NOAEL (Rattus norvegicus; subchronic, duration: 90 days, oral, diet, M/F, Sprague-Dawley, hematological): 23 mg/kg-day

CC(C)[C@@H]1CC[C@@H](C)C[C@@H]1NC(=O)C1CC1
NOAEL (Rattus norvegicus; subchronic, duration: 90 days, oral, diet, M/F, Sprague-Dawley, body weight): 147 mg/kg-day

CC1SCCSS1 (stereo not drawn) [1,2,4-Trithiane, 3-methyl-]
NOEL (Rattus norvegicus; subchronic, duration: 13 weeks, oral, diet): 0.3 mg/kg-day

COc1cccc(OC)c1 [1,3-Dimethoxybenzene]
NOAEL (Rattus norvegicus; subchronic, duration: 90 days, oral, no effects): 10 mg/kg-day

SCCCCS [1,4-Butanedithiol]
NOAEL (Rattus norvegicus; subchronic, duration: 90 days, oral, diet, M/F, Sprague-Dawley, no effects): 0.703 mg/kg-day (5×) and 0.705 mg/kg-day (5×)

CCCCCO [1-Pentanol]
NOAEL (Rattus norvegicus; subchronic, duration: 90 days, oral, gavage, no effects): 1000 mg/kg-day

Clc1ccc(-c2ccc(Cl)c(Cl)c2Cl)c(Cl)c1Cl [2,2',3,3',4,4'-Hexachlorobiphenyl]
NOAEL (Rattus norvegicus; [1]): 0.8 mg/kg-day

Clc1cc(Cl)c(-c2cc(Cl)c(Cl)cc2Cl)cc1Cl [2,2',4,4',5,5'-Hexachlorobiphenyl]
NOAEL (Rattus norvegicus; [1]): 1.2 mg/kg-day

CC1COC(C)O1 (stereo not drawn) [2,4-Dimethyl-1,3-dioxolane]
NOEL (Rattus norvegicus; chronic, duration: 2 years): 2500 mg/kg-day

CSSc1cc(C)oc1C [2,5-Dimethyl-3-(methyldisulfanyl)furan]
NOAEL (Rattus norvegicus; [2]): 5 mg/kg-day

O=C(O)c1ccc(C(=O)O)o1 [2,5-Furandicarboxylic acid]
NOAEL (Rattus norvegicus; subchronic, duration: 90 days, oral, gavage, M/F, Wistar, body weight): 300 mg/kg-day

CC(=O)c1ccc[nH]1 [2-Acetylpyrrole]
NOAEL (Rattus norvegicus; [3]): 0.048 mg/kg-day | NOAEL (Rattus norvegicus; [4]): 48 mg/kg-day | NOAEL (Rattus norvegicus; [5]): 48 mg/kg-day

CC(=O)c1nccs1 [2-Acetylthiazole]
NOAEL (Rattus norvegicus; subchronic, duration: 90 days, oral, diet, body weight): 50 mg/kg-day

CCCCC(CC)COC(=O)c1ccc(N(C)C)cc1 (stereo not drawn) [2-Ethylhexyl 4-(dimethylamino)benzoate]
NOAEL (Rattus norvegicus; short-term, duration: 4 weeks, M/F, histopathology: nonneoplastic): 100 mg/kg-day

Cc1occc1S [2-Methyl-3-furanthiol]
NOAEL (Rattus norvegicus; [6]): 5 mg/kg-day

CC1OCCC1=O (stereo not drawn) [2-Methyltetrahydrofuran-3-one]
NOAEL (Rattus norvegicus; [6]): 91 mg/kg-day

CCCC(C)=O [2-Pentanone]
NOAEL (Rattus norvegicus; subchronic, duration: 13 weeks, oral, gavage, M/F, organ weight): 20 mg/kg-day

CCC(=O)c1ccc[nH]1 [2-Propionylpyrrole]
NOAEL (Rattus norvegicus; [3]): 0.048 mg/kg-day | NOAEL (Rattus norvegicus; [5]): 48 mg/kg-day

SCc1ccccn1 [2-Pyridinemethanethiol]
NOAEL (Rattus norvegicus; [7]): 3.4 mg/kg-day

CSSSCc1ccco1 [2-[(Methyltrisulfanyl)methyl]furan]
NOAEL (Rattus norvegicus; [2]): 0.56 mg/kg-day

C/C=C/C=C/C(=O)O [2E,4E-Hexadienoic acid]
NOAEL (Rattus norvegicus; reproduction developmental, oral, gavage, M/F, Crj:CD, body weight): 300 mg/kg-day

O=C1CCc2ccccc2O1 [3,4-Dihydrocoumarin]
NOAEL (Rattus norvegicus; chronic, duration: 2 years, oral, gavage): 300 mg/kg-day | NOAEL (Rattus norvegicus; subchronic, duration: 13 weeks): 150 mg/kg-day | NOAEL (Rattus norvegicus; subchronic, duration: 13 weeks, hematological): 150 mg/kg-day

OCCc1ccc(O)c(O)c1 [3,4-Dihydroxyphenylethanol]
NOAEL (Rattus norvegicus; [8]): 50 mg/kg-day | NOAEL (Rattus norvegicus; subchronic, duration: 90 days, oral, gavage, Wistar, body weight): 250 mg/kg-day

C=C=CC(C)C(=O)OCC (stereo not drawn) [3,4-Pentadienoic acid, 2-methyl-, ethyl ester]
NOAEL (Rattus norvegicus; chronic, duration: 92 days): 1 mg/kg-day

CCC=C1OC(=O)c2ccccc21 [3-Propylidenephthalide]
NOAEL (Rattus norvegicus; [9]): 5.42 mg/kg-day

Cc1occc1SC(C)CC=O (stereo not drawn) [3-[(2-Methylfuran-3-yl)sulfanyl]butanal]
NOAEL (Rattus norvegicus; [10]): 3.76 mg/kg-day

C/C=C/C=C\CC/C=C/C(=O)NCC(C)C [(E,Z,E)-N-(2-Methylpropyl)-2,6,8-decatrienamide]
NOAEL (Rattus norvegicus; [4]): 23.4 mg/kg-day

C=CCN=C=S [Allyl isothiocyanate]
LOAEL (Rattus norvegicus; chronic, duration: 103 weeks, oral, gavage, M, histopathology: nonneoplastic): 9 mg/kg-day | NOAEL (Rattus norvegicus; chronic, duration: 721 days, oral, gavage, M/F, histopathology: neoplastic): 12 mg/kg-day

CSCc1ccccc1 [Benzyl methyl sulfide]
NOAEL (Rattus norvegicus; [9]): 0.43 mg/kg-day

CCC[CH2][Sn]([CH2]CCC)([CH2]CCC)[O][Sn]([CH2]CCC)([CH2]CCC)[CH2]CCC [Bis(tributyltin)oxide]
NOAEL (Rattus norvegicus; chronic, duration: 2 years, oral, diet, M/F, Wistar, histopathology: neoplastic): 0.025 mg/kg-day

O=C1CCCCCN1 [Caprolactam]
NOEL (Rattus norvegicus; [7]): 750 mg/kg-day

O=C([O-])c1ccccn1.O=C([O-])c1ccccn1.O=C([O-])c1ccccn1.[Cr+3] [Chromium picolinate]
NOAEL (Rattus norvegicus; chronic, duration: 2 years, M/F, Fischer 344, no effects): 2400 mg/kg-day

CC(/C=C/C=C(C)/C=C/C(=O)[O-])=C\C=C\C=C(C)\C=C\C=C(C)\C=C\C(=O)[O-].[K+].[K+] [Dipotassium 6,6'-diapo-psi,psi-carotenedioate]
NOAEL (Rattus norvegicus; subchronic, duration: 13 weeks, oral, diet, M/F, Sprague-Dawley, clinical chemistry): 30 mg/kg-day

CCCSSSCCC [Dipropyl trisulfide]
NOEL (Rattus norvegicus; [11]): 4.8 mg/kg-day

CCOC(=O)c1ccccc1O [Ethyl salicylate]
NOAEL (Rattus norvegicus; chronic, duration: 2 years, oral, growth): 50 mg/kg-day

CCOC(C)(C)C [Ethyl t-butyl ether]
NOAEL (Rattus norvegicus; chronic, duration: 6 months, oral, gavage, M/F, Sprague-Dawley, organ weight): 100 mg/kg-day

CCOC(=O)c1ccc(O)cc1 [Ethylparaben]
NOAEL (Rattus norvegicus; subchronic, duration: 8 weeks, M, Wistar, no effects): 1040 mg/kg-day

O=C(O)c1cc(O)c(O)c(O)c1 [Gallic acid]
NOAEL (Rattus norvegicus; subchronic, duration: 13 weeks, oral, M/F, organ weight): 119 mg/kg-day

OCc1c[nH]c2ccccc12 [Indole-3-carbinol]
NOAEL (Rattus norvegicus; chronic, duration: 37 weeks, oral, diet, M, no effects): 50 mg/kg-day

NCCS(=O)(=O)[O-].NCCS(=O)(=O)[O-].[Fe+2] [Iron(II) taurate]
NOAEL (Rattus norvegicus; [12]): 1000 mg/kg-day

NC(N)=NCCC[C@H](N)C(=O)O [L-Arginine]
NOAEL (Rattus norvegicus; subchronic, duration: 13 weeks, M/F, Crj:CD, no effects): 3.13 mg/kg-day

CC(=O)N[C@H]1[C@H](O[C@H]2[C@@H](O)[C@@H](CO)O[C@@H](O[C@H]3[C@H](O)[C@@H](O)C(O)O[C@@H]3CO)[C@@H]2O)O[C@H](CO)[C@@H](O)[C@@H]1O[C@@H]1O[C@H](CO)[C@H](O)[C@H](O)[C@H]1O (stereo partly drawn) [Lacto-N-tetraose]
NOAEL (Rattus norvegicus; subchronic, duration: 90 days, oral, M/F, Wistar): 5000 mg/kg-day

C=C(C)C1CC=C(C)CC1 (stereo not drawn) [Limonene]
NOAEL (Rattus norvegicus; chronic, duration: 103 weeks, oral, gavage, F, mortality): 215 mg/kg-day | NOEL (Rattus norvegicus; subchronic, duration: 13 weeks, histopathology: nonneoplastic): 10 mg/kg-day

CC1=C[C@H](O)CC(C)(C)[C@H]1/C=C/C(C)=C/C=C/C(C)=C/C=C/C=C(C)/C=C/C=C(C)/C=C/C1=C(C)C[C@@H](O)CC1(C)C [Lutein A]
LEL (Rattus norvegicus; subchronic, duration: 13 weeks, oral, no effects): 260 mg/kg-day | NOAEL (Rattus norvegicus; [2]): 200 mg/kg-day

Cc1cccc(C)c1N(Cn1cccn1)C(=O)CCl [Metazachlor]
NOAEL (Rattus norvegicus; chronic, duration: 2 years, organ weight): 8.5 mg/kg-day | NOAEL (Rattus norvegicus; developmental, development): 50 mg/kg-day | NOAEL (Rattus norvegicus; subchronic, duration: 90 days, oral, organ weight): 21 mg/kg-day

CCCCCCCCCCCC(=O)N[C@@H](CCCN=C(N)N)C(=O)OCC [N alpha-Lauroyl-L-arginine ethyl ester]
NOAEL (Rattus norvegicus; subchronic, duration: 13 weeks, oral, M/F, Sprague-Dawley, clinical chemistry): 47 mg/kg-day

CCNC(=O)C1CC(C)CCC1C(C)C (stereo not drawn) [N-Ethyl-2-(isopropyl)-5-methylcyclohexanecarboxamide]
NOEL (Rattus norvegicus; short-term, duration: 28 days, oral, gavage, M/F, Crj:CD): 8 mg/kg-day

COC(=O)[C@H](Cc1ccccc1)NC(=O)[C@H](CC(=O)O)NCCC(C)(C)C [Neotame]
NOAEL (Canidae; chronic, duration: 52 weeks, oral, clinical chemistry): 200 mg/kg-day

NC[C@@H]1O[C@H](O[C@H]2[C@@H](O)[C@H](O[C@@H]3[C@@H](O)[C@H](N)C[C@H](N)[C@H]3O[C@H]3O[C@H](CO)[C@@H](O)[C@H](O)[C@H]3N)O[C@@H]2CO)[C@H](N)[C@@H](O)[C@@H]1O.O=S(=O)(O)O [Paromomycin sulfate]
NOEL (Canidae; chronic, oral, Dog Other): 3.4 mg/kg-day

Oc1ccccc1 [Phenol]
NOAEL (Rattus norvegicus; developmental, duration: 10 days, oral, gavage, F, Sprague-Dawley, development): 120 mg/kg-day | NOAEL (Rattus norvegicus; reproduction developmental, duration: 10 days, oral, gavage, F, body weight): 60 mg/kg-day

NCCCCN [Putrescine]
LD50 (Rattus norvegicus; oral, F, mortality): 463 mg/kg

CSc1nccnc1C(C)C [Pyrazine, 2-(1-methylethyl)-3-(methylthio)-]
NOAEL (Rattus norvegicus; subchronic, duration: 13 weeks, oral, diet, M/F, no effects): 1.63 mg/kg-day

Cc1cc2nc3c(=O)[nH]c(=O)nc-3n(C[C@H](O)[C@H](O)[C@H](O)CO)c2cc1C [Riboflavin]
NOAEL (Rattus norvegicus; subchronic, duration: 90 days, M/F, Wistar, no effects): 160 mg/kg-day

CC(=O)SCc1ccco1 [S-Furfuryl thioacetate]
NOAEL (Rattus norvegicus; [8]): 3 mg/kg-day

CC1=C(C=O)C(C)(C)CC=C1 [Safranal]
NOEL (Rattus norvegicus; subchronic, duration: 90 days): 10 mg/kg-day | LEL (Rattus norvegicus; subchronic, duration: 90 days, oral, gavage, F, no effects): 120 mg/kg-day | LEL (Canidae; subchronic, duration: 90 days, Dog Other, no effects): 120 mg/kg-day

[Cl][Sn][Cl] [Stannous chloride]
NOAEL (Rattus norvegicus; subchronic, duration: 90 days, oral, diet, M/F, Wistar, body weight): 63 mg/kg-day

CC1=NCCS1 [Thiazole, 4,5-dihydro-2-methyl-]
NOAEL (Rattus norvegicus; subchronic, duration: 90 days): 1.8 mg/kg-day | NOAEL (Rattus norvegicus; [10]): 1.8 mg/kg-day

CC(C)(C)c1ccc(OP(Oc2ccc(C(C)(C)C)cc2C(C)(C)C)Oc2ccc(C(C)(C)C)cc2C(C)(C)C)c(C(C)(C)C)c1 [Tris(2,4-di-tert-butylphenyl) phosphite]
NOAEL (Rattus norvegicus; chronic, duration: 2 years, oral, no effects): 58 mg/kg-day

NC(N)=O [Urea]
LD50 (Rattus norvegicus; oral, mortality): 14300 mg/kg-day | NOEL (Rattus norvegicus; reproduction developmental, reproduction): 2250 mg/kg-day

CC1=C(/C=C/C(C)=C/C=C/C(C)=C/C=C/C=C(C)/C=C/C=C(C)/C=C/C2=C(C)C[C@@H](O)CC2(C)C)C(C)(C)C[C@H](O)C1 [Zeaxanthin]
NOAEL (Rattus norvegicus; reproduction developmental, oral, M/F, reproduction): 150 mg/kg-day

CC(O)c1ccccc1 (stereo not drawn) [alpha-Methylbenzyl alcohol]
LOAEL (Rattus norvegicus; [11]): 93 mg/kg-day

Cc1c(C)c2c(c(C)c1OC(=O)CCC(=O)O)CC[C@@](C)(CCC[C@H](C)CCC[C@H](C)CCCC(C)C)O2 [d-alpha-Tocopheryl succinate]
NOAEL (Rattus norvegicus; [1]): 265 mg/kg-day

NCCS(=O)(=O)O [l-Taurine]
NOAEL (Rattus norvegicus; [12]): 1000 mg/kg-day
